Consider ten molecules from ChEMBL document CHEMBL1201862, “PubChem BioAssay data set” (2004).

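Method: 48-hour compound exposure of cells in 96-well plates, five concentrations, linear interpolation of endpoints. Here, GI50 denotes the concentration required for 50% inhibition of growth.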 Calls of active or inactive are those of the source. No stated cut-off is given here; in the data, active = GI50 up to about 1.1 µM and inactive = higher.

What all share (assay): growth of human tumour cells (NCI), 48 h
Experiment [1] has as its system HOP-62.
For experiment [2], the system named is HCT-116.
For experiment [3], the system named is T47D.
Experiment [4] has as its system SNB-75.
Experiment [5] relates to NCI-H460.
Experiment [6] concerns DU-145.
For experiment [7], the system named is OVCAR-3.
Experiment [8] deals with SK-OV-3.
Experiment [9] deals with OVCAR-4.
In experiment [10] the test system is SF-539.
Experiment [11] deals with RXF 393.
Experiment [12] relates to K562.
For experiment [13], the system named is OVCAR-5.
Experiment [14] relates to ACHN.
The test system of experiment [15] is RPMI-8226.
Experiment [16] deals with MDA-MB-435.
Experiment [17] has as its system SF-268.
For experiment [18], the system named is HCC 2998.
Experiment [19] has as its system LOX IMVI.
Experiment [20] has as its system MDA-N.

With `Cc1c(C)n(-c2ccccc2)c2nc(S(C)(=O)=O)nc(S(C)(=O)=O)c12`, the GI50 in [1] is 16.8 µM (inactive); in experiment [2] it was 1.53 µM (inactive); in experiment [3], 2.05 µM (inactive); in experiment [4], 19.3 µM (inactive); in [5] it was 16.9 µM (inactive); in experiment [6] it was 14.6 µM (inactive). The GI50 was 1.6 µM (inactive) in experiment [7]; 19.6 µM (inactive) in experiment [8]; 1.65 µM (inactive) in [9]; 14 µM (inactive) in experiment [10]; 0.475 µM (active) in [11]; 1.4 µM (inactive) in experiment [12]. The GI50 in experiment [13] is 1.82 µM (inactive); in [14] it was 1.57 µM (inactive); in [15] it was 2.65 µM (inactive); in experiment [16] it was 1.79 µM (inactive); in experiment [17] it was 14 µM (inactive); in experiment [18], 23.3 µM (inactive). Besides, the GI50 in [19] is 1.71 µM (inactive); in experiment [20], 1.64 µM (inactive).
For `O=c1c2cc(I)ccc2nc(S)n1Cc1ccccc1`, the GI50 in [1] is 13.3 µM (inactive); in [2], 9.14 µM (inactive); in [3] it was > 100 µM (inactive); in [4] it was 20.6 µM (inactive); in [5], 6.93 µM (inactive); in experiment [6] it was 20.2 µM (inactive). The GI50 is 6.65 µM (inactive) in experiment [7]; 27.5 µM (inactive) in experiment [8]; 9.71 µM (inactive) in experiment [9]; 15.5 µM (inactive) in experiment [10]; 16.6 µM (inactive) in [11]; 35.6 µM (inactive) in [12]. In addition, the GI50 was 43.1 µM (inactive) in experiment [13]; 4.49 µM (inactive) in [14]; 6.61 µM (inactive) in [15]; 83.6 µM (inactive) in experiment [16]; 11 µM (inactive) in [17]; 17.1 µM (inactive) in [18]. Further, the figures for the GI50 in experiment [19] and in experiment [20] were 37.8 µM (inactive) and 9.2 µM (inactive), respectively.
For `O=c1[nH]c(=O)n(C2OC(CO)C(O)C2O)c2c1CCCC2` (stereo not given), the GI50 in [1], in experiment [2], in [3], in experiment [4], in experiment [5] and in experiment [6] was > 100 µM (inactive) throughout. The GI50 in experiment [7], in experiment [8], in [9], in experiment [10], in [11] and in [12] was > 100 µM (inactive) in each case. In addition, the GI50 in experiment [13], in experiment [14], in experiment [15], in experiment [16], in experiment [17] and in [18] was > 100 µM (inactive) throughout. The GI50 in experiment [19] and in experiment [20] was > 100 µM (inactive) throughout.
Turning to `C=CC(O)(CBr)CCC(Br)C(=C)C` (stereo not given), the GI50 in experiment [1], in experiment [2], in experiment [3], in experiment [4], in experiment [5] and in [6] was > 10 µM (inactive) in each case. In addition, the GI50 in [7], in experiment [8], in experiment [9], in experiment [10], in experiment [11] and in experiment [12] was > 10 µM (inactive) throughout. Moreover, the GI50 in experiment [13], in experiment [14], in [15], in [16], in experiment [17] and in [18] was > 10 µM (inactive) each time. Besides, the GI50 in experiment [19] and in [20] was > 10 µM (inactive) throughout.
Take `O=C(O)C1(Cc2ccc3c(c2)CCC3)Cc2ccccc2C1`: the GI50 in experiment [1] is 84.5 µM (inactive); in experiment [2] it was 50.4 µM (inactive); in experiment [3], 49.2 µM (inactive); in [4] it was 67.1 µM (inactive); in [5], 52.1 µM (inactive); in experiment [6] it was > 100 µM (inactive). Also, the GI50 was 71.3 µM (inactive) in experiment [7]; 31 µM (inactive) in experiment [8]; 23.3 µM (inactive) in experiment [9]; > 100 µM (inactive) in experiment [10]; 68.2 µM (inactive) in experiment [11]; 56.8 µM (inactive) in [12]. In addition, the GI50 is > 100 µM (inactive) in experiment [13]; 53.7 µM (inactive) in [14]; 71.1 µM (inactive) in experiment [15]; > 100 µM (inactive) in [16]; 52.7 µM (inactive) in [17]; 41.9 µM (inactive) in experiment [18]. In addition, the figures for the GI50 in experiment [19] and in experiment [20] were 87.1 µM (inactive) and > 100 µM (inactive), respectively.
As to `C=C(COCO)C(C)=O`, the GI50 was > 47.1 µM (inactive) in [1]; 13.5 µM (inactive) in experiment [2]; 15.7 µM (inactive) in [3]; 16.3 µM (inactive) in experiment [4]; 22 µM (inactive) in [5]; 26 µM (inactive) in experiment [6]. Also, the GI50 was 11.6 µM (inactive) in experiment [7]; 48.9 µM (inactive) in [8]; 17.9 µM (inactive) in experiment [9]; 6.24 µM (inactive) in experiment [10]; 14.3 µM (inactive) in experiment [11]; 3.45 µM (inactive) in experiment [12]. Besides, the GI50 in experiment [13] was 20.5 µM (inactive); in [14] it was 15.7 µM (inactive); in experiment [15] it was 2.94 µM (inactive); in experiment [16], 14.2 µM (inactive); in experiment [17], 20 µM (inactive); in experiment [18], 27.9 µM (inactive). For the same molecule, the GI50 was 15.9 µM (inactive) in [19] and 16.9 µM (inactive) in [20].
For the molecule `C=CCNC(=O)CN(CC(=O)O)C1CCCCC1N(CC(=O)O)CC(=O)O` (stereo not given), the GI50 in experiment [1], in [2], in experiment [3], in experiment [4], in experiment [5] and in [6] was > 100 µM (inactive) in each case. Further, the GI50 in [7], in experiment [8], in [9], in [10], in [11] and in experiment [12] was > 100 µM (inactive) each time. Further, the GI50 in experiment [13], in experiment [14], in experiment [15], in experiment [16], in experiment [17] and in experiment [18] was > 100 µM (inactive) in each case. For the same molecule, the GI50 in experiment [19] and in [20] was > 100 µM (inactive) throughout.
For the molecule `COc1cc(OC)c2c(c1)OC(c1cccnc1)C(c1ccccc1)C2=O` (stereo not given), the GI50 in [1] is > 100 µM (inactive); in experiment [2], > 100 µM (inactive); in [3], 52 µM (inactive); in experiment [4] it was > 100 µM (inactive); in [5], 34 µM (inactive); in experiment [6] it was > 100 µM (inactive). The GI50 is 86.3 µM (inactive) in experiment [7]; > 100 µM (inactive) in [8]; 80.2 µM (inactive) in experiment [9]; > 100 µM (inactive) in experiment [10]; > 100 µM (inactive) in experiment [11]; > 100 µM (inactive) in [12]. The GI50 in experiment [13] is > 100 µM (inactive); in experiment [14], > 100 µM (inactive); in experiment [15] it was > 100 µM (inactive); in [16], 84.5 µM (inactive); in experiment [17] it was > 100 µM (inactive); in experiment [18] it was > 100 µM (inactive). Also, the GI50 in experiment [19] is > 100 µM (inactive); in experiment [20], 42.7 µM (inactive).
In the case of `O=C1Sc2ccccc2NC1=C(C(=O)c1ccccc1)C(=O)c1ccccc1`, the GI50 in [1] was 8.75 µM (inactive); in experiment [2], 18.7 µM (inactive); in [3] it was 26.5 µM (inactive); in experiment [4], 31.6 µM (inactive); in experiment [5], 9.95 µM (inactive); in [6], 21.2 µM (inactive). The GI50 in experiment [7] was 5.18 µM (inactive); in experiment [8] it was 21.7 µM (inactive); in experiment [9] it was 69.8 µM (inactive); in experiment [10], 26.5 µM (inactive); in experiment [11] it was 47.1 µM (inactive); in [12] it was 2.88 µM (inactive). In addition, the GI50 in experiment [13] was 47.1 µM (inactive); in [14], 22.1 µM (inactive); in experiment [15], 12.6 µM (inactive); in experiment [16], 40.6 µM (inactive); in experiment [17] it was 14.9 µM (inactive); in [18], 19.4 µM (inactive). Also, the GI50 in experiment [19] is 13.5 µM (inactive); in experiment [20], 33.7 µM (inactive).
Consider `COc1ccc2c(c1OC)OCC(CN(C)C)C2=O` (stereo not given), for which the GI50 was > 51.8 µM (inactive) in experiment [1]; 17.4 µM (inactive) in experiment [2]; 19.9 µM (inactive) in [3]; 22.3 µM (inactive) in experiment [4]; > 44.6 µM (inactive) in experiment [5]; 18.8 µM (inactive) in experiment [6]. Moreover, the GI50 in experiment [7] is 21.5 µM (inactive); in [8], > 43.1 µM (inactive); in experiment [9], 22.9 µM (inactive); in experiment [10] it was 20.4 µM (inactive); in [11], 16.6 µM (inactive); in experiment [12], 3.63 µM (inactive). Also, the GI50 in experiment [13] was 19.1 µM (inactive); in experiment [14], 17.7 µM (inactive); in [15], 2.42 µM (inactive); in [16], 19.5 µM (inactive); in experiment [17], 25.4 µM (inactive); in experiment [18], 18.7 µM (inactive). The GI50 in experiment [19] was 14.3 µM (inactive); in experiment [20], 18.2 µM (inactive).
